Molecular target: T1, RIPK1 (receptor interacting serine/threonine protein kinase 1) (Homo sapiens, UniProt Q13546)
T1 construct: Flag-RIPK1 immunoprecipitated from HEK293T cells
T1 sequence (Q13546 1-671): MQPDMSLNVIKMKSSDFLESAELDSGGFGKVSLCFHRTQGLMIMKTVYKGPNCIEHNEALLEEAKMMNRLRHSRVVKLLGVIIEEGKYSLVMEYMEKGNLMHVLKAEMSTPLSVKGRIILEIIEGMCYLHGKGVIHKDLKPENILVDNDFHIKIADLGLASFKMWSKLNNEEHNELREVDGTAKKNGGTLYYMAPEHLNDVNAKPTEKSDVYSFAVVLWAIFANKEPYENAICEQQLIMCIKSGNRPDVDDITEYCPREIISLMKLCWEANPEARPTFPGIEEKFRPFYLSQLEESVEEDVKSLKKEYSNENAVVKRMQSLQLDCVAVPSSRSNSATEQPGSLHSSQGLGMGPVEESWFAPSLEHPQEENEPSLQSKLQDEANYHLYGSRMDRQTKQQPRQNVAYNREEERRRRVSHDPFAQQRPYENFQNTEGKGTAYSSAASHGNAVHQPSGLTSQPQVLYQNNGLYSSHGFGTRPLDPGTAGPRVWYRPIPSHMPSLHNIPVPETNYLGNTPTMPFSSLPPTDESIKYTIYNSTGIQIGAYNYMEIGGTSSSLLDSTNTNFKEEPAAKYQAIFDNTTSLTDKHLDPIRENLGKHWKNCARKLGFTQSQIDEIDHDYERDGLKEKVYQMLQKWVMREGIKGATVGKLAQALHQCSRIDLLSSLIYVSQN
Assay: in vitro kinase assay on immunoprecipitated Flag-RIPK1 (Kinase-Glo; p-S166 western blot)
Format: biochemical

IC50: 0.366 µM
SMILES: CN1C(=O)[C@@H](Cc2c[nH]c3c(Cl)c(F)ccc23)N(C=O)C1=O [ZJU-37]

Reference: publication PMC8975999, “Inhibition of RIPK1 by ZJU-37 promotes oligodendrocyte progenitor proliferation and remyelination via NF-κB pathway” (Cell Death Discovery, 2022)
